Measured values reported in patent publication US20160281125A1, “ANTIMICROBIAL COMPOUND SUSCEPTIBILITY TEST” (priority 2013, published 2016).

Assays:
[1] = tested on: K. pneumo BAA-2146 (NDM1); experiment: Selective lysis test, OD600, meropenem and cefotaxime (Example 2); format: cell-based, K. pneumoniae
Experimental: (§1) In this experiment the following strains were tested: strain K. pneumoniae 13882 (previously considered meropenem sensitive and cefotaxime sensitive); E. coli BAA-197 (ESBL) (which expresses an extended-spectrum (beta)-lactamase enzyme and was previously considered meropenem sensitive and cefotaxime resistant); K. pneumoniae BAA-1705 (KPC) (which expresses a carbapenemase enzyme and was previously considered meropenem resistant and cefotaxime resistant); and K. pneumoniae BAA-2146 (NDM1) (which expresses the metallo-beta-lactamase-1 enzyme and was previously considered meropenem resistant and cefotaxime resistant).
(§2) An isolated colony from an overnight Tryptocase Soy Agar (TSA) plate of each bacteria was suspended in 1 ml Tryptocase Soy Broth (TSB) in a 5 ml BD polystyrene round bottom tube. TSB cultures were incubated at 37° C. for 1.5 hours shaking. Three 250 μl aliquots of each stationary-phase culture were then transferred to three 2 ml Eppendorf microcentrifuge tubes. One tube contained 500 μl of Normal Saline (BD); the second tube contained 500 μl Normal Saline with meropenem at 10 μg/ml; and the third tube contained 500 μl Normal Saline with cefotaxime (abbreviated […]) at 10 μg/ml. Tubes were inverted then incubated at 37° C. stagnant for thirty minutes. Then […] of lysis buffer (0.5% SDS in PSB) was added to each tube and each tube was vortexed for 5 seconds. Post incubation, all tubes were spun at 10000 G for 5 minutes. Supernatant was decanted and the pellet resuspended in Normal Saline. Tubes were vortexed. OD600 was measured using Eppendorf uvettes in a spectrophotometer. The delta between the control and the meropenem normal saline, or the control and the cefotaxime normal saline was used to determine susceptibility.

[2] = tested on: K. pneumo 13882; experiment: as above; format: cell-based, K. pneumoniae
Experimental: as §1, §2

[3] = tested on: K. pneumo BAA-1705 (KPC); experiment: as above; format: cell-based, K. pneumoniae
Experimental: as §1, §2

[4] = tested on: E. coli BAA-197 (ESBL); experiment: as above; format: cell-based
Experimental: as §1, §2

[5] = tested on: class D beta-lactamase Enterobacteriaceae; experiment: Lysis test on simulated blood cultures vs CLSI disk diffusion (Example 9); format: cell-based; details: the one Class D strain incorrect with ertapenem; cut-off ≦30% resistant
Experimental: In this example, isolates tested include strains with and without carbapenemases. From fresh blood agar plates, three colonies per strain were used to inoculate blood culture media containing human blood and grown overnight at 37° C. with shaking, producing a simulated blood culture. Cultures were then diluted 1:10 into broth medium and grown for an additional hour at 37° C. with shaking. For each strain, four 250 μL aliquots were added into four separate 2 mL Eppendorf microcentrifuge tubes. […] Tubes were vortexed to resuspend the pellet completely, and then OD600 measurement was taken and the percent change, or percent lysis, between the control and antibiotic tubes was calculated (percent change=[control OD−antibiotic OD]/control OD). Results were then compared to the susceptibility of the strains, determined using the Clinical and Laboratory Standards Institute (CLSI) methods for disk diffusion. […]
Of note, if a strain was determined to be intermediate to a drug by the disk diffusion method using CLSI breakpoints, it was expected to correlate to the resistant answer by the method of the invention. […] With this consideration, it is preferable that intermediate strains are conservatively scored as resistant to prevent possible treatment failure. […]

[6] = tested on: K. pneumoniae strain 13882; experiment: Carbapenem test, Triton fixation buffer and BacUni QuickFISH staining (Example 4); format: cell-based; details: FIG. 10; K. pneumoniae 13882; 10 μg/ml
Experimental: (§3) An isolated colony from an overnight Tryptocase Soy Agar (TSA) plate for each bacteria was suspended in 1 ml Tryptocase Soy Broth (TSB) in a 5 ml BD polystyrene round bottom tube. TSB cultures were incubated at 37° C. for 1.5 hours shaking. […] of each stationary-phase culture were transferred to 2 ml Eppendorf microcentrifuge tubes containing 500 μl of Normal Saline (BD); or 500 μl Normal Saline with imipenem, ertapenem, or meropenem at a concentration of […], […], or 40 μg/ml (26.67 μg/ml final concentration). Tubes were inverted then incubated at 37° C. stagnant for thirty minutes. Then 10 μl from each tube was pipetted onto plain glass slide on a 55° C. heat block, followed by 25 μl fixation buffer (0.5% T×100, 100 mM Tris pH 9, 24% Ethanol, and 10 mM NaCl); slide is incubated until sample is dry. Ten μl of BacUni QuickFISH hybridization buffer was added to each slide followed by a 22×22 mm coverslip. The slide was then incubated at 55° C. for 15 minutes. The slides were viewed on a fluorescence microscope 60× oil immersion on Dual TxR/FITC. Images were taken with a 1 second exposure.
(§4) The control fixation in this experiment has all the same components, except no Triton X-100. This was done to assess whether the selective lysis step is required to resolve a difference between susceptible and resistant bacteria.

[7] = tested on: K. pneumoniae strain BAA2146 NDM+; experiment: as above; format: cell-based; details: FIG. 11, 10 μg/ml
Experimental: as §3, §4

[8] = tested on: E. coli strain 35218; experiment: as above; format: cell-based; details: FIG. 9; E. coli 35218; 10 μg/ml
Experimental: as §3, §4

CO/N=C(\C(=O)N[C@@H]1C(=O)N2C(C(=O)O)=C(COC(C)=O)CS[C@H]12)c1csc(N)n1 [cefotaxime]
% diff ([1]; K. pneumo BAA-2146 (NDM1), OD600 vs control): 6.7%
OD600 ([1]; K. pneumo BAA-2146 (NDM1), antibiotic 10 μg/ml, 30 min, SDS lysis buffer + vortex, 1.5 h culture): 0.28
assay score (sensitive or resistant) ([1]; K. pneumoniae BAA-2146 (NDM1)): resistant
% diff ([2]; K. pneumo 13882, OD600 vs control): 69.8%
OD600 ([2]; K. pneumo 13882, antibiotic 10 μg/ml, 30 min, SDS lysis buffer + vortex, 1.5 h culture): 0.11
assay score (sensitive or resistant) ([2]; K. pneumoniae 13882): sensitive
% diff ([3]; K. pneumo BAA-1705 (KPC), OD600 vs control): 34.1%
OD600 ([3]; K. pneumo BAA-1705 (KPC), antibiotic 10 μg/ml, 30 min, SDS lysis buffer + vortex, 1.5 h culture): 0.334
assay score (sensitive or resistant) ([3]; K. pneumoniae BAA-1705 (KPC)): resistant
assay score (sensitive or resistant) [4]: resistant
% diff ([4]; OD600 vs control): 19.1%
OD600 ([4]; antibiotic 10 μg/ml, 30 min, SDS lysis buffer + vortex, 1.5 h culture): 0.292

C[C@@H](O)[C@H]1C(=O)N2C(C(=O)O)=C(S[C@@H]3CN[C@H](C(=O)Nc4cccc(C(=O)O)c4)C3)[C@H](C)[C@H]12 [ertapenem]
lysis (percent change of OD600) [5]: 36%
test result (susceptibility or resistance) by BacUni QuickFISH staining [6]: detect susceptibility
test result (susceptibility or resistance) by BacUni QuickFISH staining [7]: detect resistance
test result (susceptibility or resistance) by BacUni QuickFISH staining [8]: detect susceptibility
